Experimental data from patent US20230012368A1 (Hoffmann-La Roche Inc., priority 2018, published 2023).
Counter-ions that a name gives are not always drawn.

system: Acinetobacter baumannii ATCC 17978; experiment: Antimicrobial susceptibility testing: 90% growth inhibitory concentration (IC90) determination; type: cell-based; conditions: 90% growth inhibitory concentration; Acinetobacter baumannii ATCC17978; Iso-Sensitest broth, OD 600 nm over 16h; read-out: ATCC17978 IC90
Procedure, shortened: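 Compounds serially twofold diluted (e.g. 50 to 0.097 μM final) in Iso-Sensitest broth, inoculated at ~5×10^(5) CFU/ml, incubated at 35±2° C. OD600 read every 20 minutes over 16h. IC90 taken as concentration inhibiting 90% of growth during logarithmic phase.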

SMILES	IC90 [nM]
CCc1cc(Nc2nccn3c(-c4ccc(Cl)c(F)c4F)cnc23)ccc1C(=O)N(C)CCCN [Example 282, N-(3-aminopropyl)-4-[[3-(4-chloro-2,3-difluorophenyl)imidazo[1,2-a]pyrazin-8-yl]amino]-2-ethyl-N-methylbenzamide; hydrochloride]	1400
COc1ccc(-c2cnc3c(Nc4ccc(C(=O)NCC5CCS(=O)(=O)CC5)c(Cl)c4)nccn23)c(F)c1F [Example 106, 2-chloro-4-[[3-(2,3-difluoro-4-methoxy-phenyl)imidazo[1,2-a]pyrazin-8-yl]amino]-N-[(1,1-dioxothian-4-yl)methyl]benzamide; 2,2,2-trifluoroacetic acid]	140
CCc1cc(Nc2nccn3c(-c4ccc(Oc5ncccn5)c(F)c4F)cnc23)ccc1C(=O)NCCNC(=O)[C@H](N)CCCNC(=N)N [Example 437, N-[2-[[(2R)-2-amino-5-guanidino-pentanoyl]amino]ethyl]-4-[[3-(2,3-difluoro-4-pyrimidin-2-yloxy-phenyl)imidazo[1,2-a]pyrazin-8-yl]amino]-2-ethyl-benzamide; formic acid]	410

same assay, conditions: Acinetobacter baumannii, ATCC17978, 16 h, 90% growth inhibitory concentration; Acinetobacter baumannii ATCC17978; Iso-Sensitest broth, OD 600 nm over 16h; read-out: ATCC17978 IC90

SMILES	IC90 [nM]
Cc1cc(Nc2nccn3c(-c4ccc(Cl)c(F)c4F)cnc23)ccc1C(=O)NCCCN [Example 214, N-(3-aminopropyl)-4-[[3-(4-chloro-2,3-difluorophenyl)imidazo[1,2-a]pyrazin-8-yl]amino]-2-methylbenzamide;hydrochlo-ride]	690
CCc1cc(Nc2nccn3c(-c4ccc(OC)c(F)c4F)cnc23)ccc1C(=O)NCCCNC(=O)NCCN [Example 119, N-[3-(2-aminoethylcarbamoylamino)propyl]-4-[[3-(2,3-difluoro-4-methoxy-phenyl)imidazo[1,2-a]pyrazin-8-yl]amino]-2-ethyl-benzamide]	180
COc1ccc(-c2cnc3c(Nc4ccc(C(=O)N(C)CC5CCNCC5)c(Cl)c4)nccn23)cc1F [Example 205, 2-chloro-4-[[3-(3-fluoro-4-methoxyphenyl)imidazo[1,2-a]pyrazin-8-yl]amino]-N-methyl-N-(piperidin-4-ylmethyl)benzamide;hydrochlo-ride]	530
COc1ccc(-c2cnc3c(Nc4ccc(C(=O)NCCCN5CCS(=O)(=O)CC5)c(C)c4)nccn23)cc1F [Example 36, N-[3-(1,1-dioxo-1,4-thiazinan-4-yl)propyl]-4-[[3-(3-fluoro-4-methoxy-phenyl)imidazo[1,2-a]pyrazin-8-yl]amino]-2-methyl-benzamide; 2,2,2-trifluoroacetic acid]	460
CNC(=O)c1ccc(Nc2nccn3c(-c4ccc(OC(F)F)cc4)cnc23)cc1COCCO [Example 168, 4-[[3-[4-(difluoromethoxy)phenyl]imidazo[1,2-a]pyrazin-8-yl]amino]-2-(2-hydroxyethoxymethyl)-N-methyl-benzamide]	2000
COc1ccc(-c2cnc3c(Nc4ccc(C(=O)NCC5CCN(C(=N)N)CC5)c(C)c4)nccn23)c(F)c1F [Example 292, N-[(1-carbamimidoylpiperidin-4-yl)methyl]-4-[[3-(2,3-difluoro-4-methoxyphenyl)imidazo[1,2-a]pyrazin-8-yl]amino]-2-methylbenzamide]	110
Cc1cc(Nc2nccn3c(-c4ccc(OC(F)F)cc4)cnc23)ccc1C(=O)NC[C@@H](C)N [Example 268, N-[(2R)-2-aminopropyl]-4-[[3-[4-(difluoromethoxy)phenyl]im-idazo[1,2-a]pyrazin-8-yl]amino]-2-methylbenzamide;hydrochlo-ride]	5600
CCc1cc(Nc2nccn3c(-c4ccc(Cl)c(F)c4F)cnc23)ccc1C(=O)NCC1CCNC1 (stereo not shown) [Example 277, 4-[[3-(4-chloro-2,3-difluorophenyl)imidazo[1,2-a]pyrazin-8-yl]amino]-2-ethyl-N-(pyrrolidin-3-ylmethyl)benzamide;hydrochlo-ride]	700
CCc1cc(Nc2nccn3c(-c4ccc(OCC#N)c(F)c4F)cnc23)ccc1C(=O)NCCCN [Example 299, N-(3-aminopropyl)-4-[[3-[4-(cyanomethoxy)-2,3-difluorophenyl]imidazo[1,2-a]pyrazin-8-yl]amino]-2-ethylbenzamide;2,2,2-trifluoroacetic acid]	180
CCc1cc(Nc2nccn3c(-c4ccc(OC(F)F)c(F)c4F)cnc23)ccc1C(=O)NCCc1nnc(C)[nH]1 [Example 295, 4-[[3-[4-(difluoromethoxy)-2,3-difluorophenyl]imidazo[1,2-a]pyrazin-8-yl]amino]-2-ethyl-N-[2-(5-methyl-4H-1,2,4-triazol-3-yl)ethyl]benzamide]	140
CNC(=O)c1ccc(Nc2nccn3c(-c4ccc(OC)c(Cl)c4)cnc23)cc1 [Example 181, 4-[[3-(3-chloro-4-methoxyphenyl)imidazo[1,2-a]pyrazin-8-yl]amino]-N-methylbenzamide;2,2,2-trifluoroacetic acid]	1300
O=C(NCC1CCNCC1)c1ccc(Nc2nccn3c(-c4ccc(OC(F)F)c(F)c4F)cnc23)cc1Cl [Example 43, 2-chloro-4-[[3-[4-(difluoromethoxy)-2,3-difluoro-phenyl]imidazo[1,2-a]pyrazin-8-yl]amino]-N-(4-piperidylmethyl) benzamide; 2,2,2-trifluoroacetic acid]	220

The next lines start with the values.

IC90 [nM]	SMILES
410	CCc1cc(Nc2nccn3c(-c4ccc(OC)c(F)c4F)cnc23)ccc1C(=O)NCCNC(=O)[C@@H](N)CCCCN [Example 398, N-[2-[[(2S)-2,6-diaminohexanoyl]amino]eth-yl]-4-[[3-(2,3-difluoro-4-methoxy-phenyl)imidazo[1,2-a]pyrazin-8-yl]amino]-2-ethyl-benzamide; formic acid]
880	CCc1cc(Nc2nccn3c(-c4ccc(Oc5nccs5)c(F)c4F)cnc23)ccc1C(=O)NCCCN [Example 482, #N!-(3-aminopropyl)-4-[[3-[2,3-difluoro-4-(1,3-thiazol-2-yloxy)phenyl]imidazo[1,2-a]pyrazin-8-yl]amino]-2-ethylbenzamide]
330	CCc1cc(Nc2nccn3c(-c4ccc(Oc5ccccn5)c(F)c4F)cnc23)ccc1C(=O)NCCCCC(=O)N1CCN[C@H](CO)C1 [Example 477, 4-[[3-[2,3-difluoro-4-(2-pyridyloxy)phenyl]imidazo [1,2-a]pyrazin-8-yl]amino]-2-ethyl-N-[5-[(3S)-3-(hydroxymethyl)piperazin-1-yl]-5-oxo-pentyl]benzamide]
290	COc1ccc(-c2cnc3c(Nc4ccc5c(c4)CCN(CCCO)C5=O)nccn23)c(F)c1F [Example 327, 6-[[3-(2,3-difluoro-4-methoxyphenyl)imidazo[1,2-a]pyrazin-8-yl]amino]-2-(3-hydroxypropyl)-3,4-dihydroisoquinolin-1-one]
260	CCc1cc(Nc2nccn3c(-c4ccc(OC)c(F)c4F)cnc23)ccc1C(=O)NC[C@H](C)N [Example 522, (S)-N-(2-aminopropyl)-4-((3-(2,3-difluoro-4-methoxyphenyl)imidazo[1,2-a]pyrazin-8-yl)amino)-2-ethylbenzamide hydrochloride]
430	CCc1cc(Nc2nccn3c(-c4ccc(OC)c(F)c4F)cnc23)ccc1C(=O)NCCNC(=O)NCCCN [Example 335, N-[2-(3-aminopropylcarbamoylamino)ethyl]-4-[[3-(2,3-difluoro-4-methoxyphenyl)imidazo[1,2-a]pyrazin-8-yl]amino]-2-ethylbenzamide]
110	CCc1cc(Nc2nccn3c(-c4ccc(OC(F)F)c(F)c4F)cnc23)ccc1C(=O)NCCCNC(=O)CN(C)C [Example 324, 4-[[3-[4-(difluoromethoxy)-2,3-difluorophenyl]imidazo[1,2-a]pyrazin-8-yl]amino]-N-[3-[[2-(dimethylamino)acetyl]amino]propyl]-2-ethylbenzamide]
50	CCc1cc(Nc2nccn3c(-c4ccc(OC)c(F)c4F)cnc23)ccc1C(=O)NCCCNC(=O)C1CNC(=N)N1 (stereo not shown) [Example 356, N-[3-[[4-[[3-(2,3-difluoro-4-methoxyphenyl)imidazo[1,2-a]pyrazin-8-yl]amino]-2-ethylbenzoyl]amino]propyl]-2-iminoimidazolidine-4-carboxamide]
207	CCc1cc(Nc2nccn3c(-c4ccc(OC)cc4C(F)(F)F)cnc23)ccc1C(=O)NC [Example 537, 2-ethyl-4-[[3-[4-methoxy-2-(trifluoromethyl)phenyl]imid-azo[1,2-a]pyrazin-8-yl]amino]-N-methyl-benzamide]
50	COc1ccc(-c2cnc3c(Nc4ccc(C(=O)NCCCCN)c(C)c4)nccn23)c(F)c1F [Example 513, N-(4-aminobutyl)-4-((3-(2,3-difluoro-4-methoxyphenyl)imidazo[1,2-a]pyrazin-8-yl)amino)-2-methylbenzamide hydrochloride]
100	CCc1cc(Nc2nccn3c(-c4ccc(OC)c(F)c4F)cnc23)ccc1C(=O)NCCCNC(=O)[C@@H](N)CCNC(=N)N [Example 367, N-[3-[[(2S)-2-amino-4-carbamimidamidobutanoyl]amino]propyl]-4-[[3-(2,3-difluoro-4-methoxyphenyl)imidazo[1,2-a]pyrazin-8-yl]amino]-2-ethylbenzamide;formic acid]
77	CCc1cc(Nc2nccn3c(-c4ccc(OC)c(F)c4F)cnc23)ccc1C(=O)NCC1CCN(CC(=O)NCC2CCNC2)CC1 (stereo not shown) [Example 551, 4-((3-(2,3-difluoro-4-methoxyphenyl)imidazo[1,2-a]pyrazin-8-yl)amino)-2-ethyl-N-((1-(2-oxo-2-((pyrrolidin-3-ylmethyl)amino)ethyl)piperi-din-4-yl)methyl)benzamide bis(2,2,2-trifluoroacetate)]
140	C=CCNC(=O)c1ccc(Nc2nccn3c(-c4ccc(OC)c(F)c4F)cnc23)cc1CC [Example 329, 4-[[3-(2,3-difluoro-4-methoxyphenyl)imidazo[1,2-a]pyrazin-8-yl]amino]-2-ethyl-N-prop-2-enylbenzamide]
